Data on two compounds can be found in PMC8427951, “Design, synthesis, and preliminary evaluation of a potential synthetic opioid rescue agent” (Journal of Biomedical Science, 2021).

The subject of series [1] is C57BL/6J mice. The experiment in a line: Hot plate assay, oxycodone-induced thermal antinociception. The class given is in vivo. On the technique in general: Hot-plate and tail-flick tests time the reaction to a heat stimulus.
The nature of series [2]: Pharmacokinetic study, plasma (IV, PO, IP). The settings on record: for half-life / Tmax / bioavailability / AUC: plasma; for AUC: NCA. The class given is in vivo, C57BL/6J mice. The procedure:
(§1) Adult male C57BL/6J mice were purchased from Jackson Laboratories (Bar Harbor, ME). The animals were housed in polyethylene cages and given food and water ad libitum. Animals were administered 29 by intravenous, oral gavage or intraperitoneal (IV, PO or IP injection). Two groups of mice (n = 3/group) were sampled three times each via the saphenous vein. Whole blood samples were collected into heparinized pipet tips, centrifuged at 4300×g for 2 min to isolate plasma and transferred onto dry ice. Plasma samples were stored at − 80 °C until processing. Separately, for brain biodistribution studies, five mice per time-point were administered 29 via the IP route and a single blood sample was collected from each animal via intracardiac puncture prior to perfusing with ice-cold saline for 5 min before removing the brain. All animal procedures were conducted in accordance with The Guide for the Care and Use of Laboratory Animals (National Academic Press, 1996) and approved by the IACUC (Institutional Animal Care and Use Committee) at the University of Kentucky and at the Rockefeller University.
Experimental plasma samples were thawed at 37 °C for 3 min and vortex mixed. […] Samples were vortex mixed, then treated with 4× volume (60 µL) of 0.1% formic acid in methanol to precipitate proteins. The samples were vortex mixed (5 s) then centrifuged at 13,000×g for 15 min at 4 °C. The resulting supernatants were collected into amber HPLC vials fitted with 200 µL glass inserts and immediately analyzed for analyte content by LC/MS–MS.
(§2) For the analysis of total amount of 29 in the plasma samples, calibration curve was generated with 29 drug spiked to mouse blank plasma. Calibrators (0.25–1000 ng/mL) were prepared by the addition of 5 µL of appropriate spiking solution into 100 µL blank plasma followed by vortex mixing. Quality control samples (0.75, 25, 500, 850 ng/mL) were prepared from an independent second stock in a similar fashion. For the analysis of 29 in brain tissue samples, calibration curve was generated with 29 drug spiked to blank mouse brain tissue homogenate using a calibration curve (0.5–372 ng/mL) and quality control samples (0.75, 13.3, 25, 266 ng/mL). The limit of quantitation for plasma was 0.4 ng/mL and for brain tissue 1 ng/mL.
(§3) Analyte and internal standard contained in 4 µL sample injections were eluted from a Waters XBridge C18 (3.5µ, 4.6 × 150 mm; oven temp. 40 °C) analytical column with a 0.1% formic acid in water (Mobile Phase-A): 0.1% formic acid in acetonitrile (Mobile Phase-B) gradient. […] The 90% Mobile Phase-B was maintained for 2.5 min before returning to the initial 35% over a 0.1 min linear ramp. […] The total run time was 7.5 min. Positive-mode ESI Turbo V® source and MS gas, temperature and voltage potential settings were based on optimized parameters determined prior to analysis using infusions of 1000 ng/mL drug standards in 50:50 mobile phase mixture mixed with LC effluent for a total 0.6 mL/min flow rate. Flow-dependent parameters were: CUR = 35/ISV = 5500/TEM = 550/GS1 = 65/GS2 = 65/Horizontal probe position = 7/Vertical probe position = 0.5). […] Calibrators, quality control samples and experimental sample sequences consisted of single randomized experimental sample injections flanked by sets of blanks, and calibrators. A calibration curve was constructed by weighted (1/x^2) polynomial regression analysis of analyte concentration to analyte peak area using GraphPad Prism software (Ver 8.4.3).
(§4) All data sets were analyzed using Phoenix WinNonlin (Certara). A 2-compartment mammillary model was simultaneously fitted to all plasma concentrations obtained from intravenous, oral, and intraperitoneal administration of 29. The oral and intraperitoneal bioavailability was also estimated. Parameters were estimated using population modeling with quasi-random parameter estimation method (QRPEM). […]

Series [3] in a line: Brain biodistribution study after IP dosing. It is filed as in vivo, C57BL/6J mice. The conditions noted are these: male, C57BL/6J, mouse, 2 mg/kg. The procedure: as §1
Brains were excised and sectioned at the sagittal plane. Half of the brain from each animal was homogenized (1:1, w/v) with phosphate buffered saline. […] Proteins were precipitated by addition of 80 µL of 0.1% formic acid. Samples were vortex mixed (10 s) and stored at − 20 °C for 20 min prior to centrifugation at 13,000×g for 15 min at 4 °C. The resulting supernatants were collected into amber HPLC vials fitted with 200 µL glass inserts and immediately analyzed for analyte content by LC/MS–MS.
as §2, §3, §4

Series [4] has as its system C57BL/6J mice. Description: Locomotor activity assay, deficits caused by KOR agonist U50,488. The class given is in vivo. On the procedure:
These studies (in C57BL/6J mice from the Jackson Laboratory) focused on the effectiveness of 29 in preventing decreases in locomotor activity caused by the KOR agonist U50,488 (10 mg/kg, IP) over 90 min. This dose and duration of monitoring period was based on recently published studies. Mice were placed individually in rectangular transparent plastic cages (19.7 cm width × 41.3 cm length × 20.3 cm height) with bedding identical to that in the home cage. Each cage was in a photocell frame with an array of perpendicular photocell beams (SmartFrame; Kinder Scientific, Poway, CA). Beam breaks caused by the mouse were quantified through a computer interface. Mice were habituated to this apparatus for a 60-min session. Consecutive experiments in the same mice were separated by at least 72 h. Vehicle or 29 was injected 30 min prior to U50,488 (10 mg/kg). Immediately after the U50,488 injection, each mouse was placed in a locomotor activity cage for a 90-min period.
The locomotor activity data were analyzed as beam breaks over 15-min bins. Data were analyzed with 2-way repeated measures or mixed effects ANOVAs, followed by appropriate post-hoc tests (GraphPad Prism software).

Where [5] appears, read: male, C57BL/6J, mouse, IP, 2 mg/kg.
The mark [6] stands for this setting: male, C57BL/6J, mouse, IV, 2 mg/kg.
[7] abbreviates: male, C57BL/6J, mouse, PO, 5 mg/kg.

“Also recorded” adds a separate entry of the source. Like-named read-outs stand apart in the source and are kept apart here.

Regarding `COc1ccc2c3c1O[C@H]1C(=O)CC[C@@]4(O)[C@@H](C2)N(C)CC[C@]314` [Oxycodone, oxycodone, reference compound], the “time of peak effects after injection” value in the series on C57BL/6J mice [1] (oxycodone 5.6 mg/kg IP) turned out to be 15 min. Besides, in the series with C57BL/6J mice [1] (oxycodone 5.6 mg/kg IP, 30 min after vehicle pretreatment), the antinociceptive effect entry is reported as “near-maximal antinociceptive effect”.

The term half-life denotes the time in which the quantity being followed falls by half. Usually Tmax stands for the time at which the peak concentration occurs. As a reminder, the AUC is the area under the concentration-time curve, a measure of exposure. In the case of `C=C1CC[C@@]2(OCCC)[C@H]3Cc4ccc(O)c5c4[C@@]2(CCN3CC2CC2)[C@H]1O5` [Compound 29], the CL2 in series [2] (2-compartment model) came to 174 mL/min/kg. Also, in series [2] (2-compartment model), the V2 is 6.07 L/kg. Further, the V in series [2] (2-compartment model fitted to IV, PO and IP plasma concentrations) amounted to 5.36 L/kg. In addition, in series [2] (2-compartment model, IP 2 mg/kg, 2 mg/kg), the “FIP (bioavailability following IP administration)” value was 99.5%. The “Ka,ip” value in series [2] (2-compartment model, intraperitoneal absorption) was 7.53 h⁻¹. For the same compound, the “Ka,po” value in series [2] (2-compartment model, oral absorption) turned out to be 7.91 h⁻¹. The “time of measurable plasma concentrations” value in series [2] (IP dosing) is “at least 6 h”. Also, the “time plasma concentrations were above the lower quantitation limit” value in series [2] (following IV and PO dosing) is 2 h. Besides, the half-life in series [2] (male, C57BL/6J, mouse, intraperitoneal, 2 mg/kg, mice, read-out: plasma half-life (converted)) was 54 min; in series [2] (male, C57BL/6J, mouse, intravenous, oral, intraperitoneal, mice, read-out: plasma half-life (converted)), 36 to 60 min; in series [2] (male, C57BL/6J, mouse, IP, 2 mg/kg, read-out: Apparent half-life, t½ (converted)) it was 56.4 min; in series [2] (male, C57BL/6J, mouse, IV, 2 mg/kg, read-out: Apparent half-life, t½ (converted)) it was 34.8 min; in series [2] (male, C57BL/6J, mouse, PO, 5 mg/kg, read-out: Apparent half-life, t½ (converted)), 59.4 min; in series [3] (brain, ip, IP dosing, brain, mice, read-out: apparent terminal half-life in the brain), about 80 min. Further, the half-life in series [3] (brain, ip, IP, brain, read-out: Apparent half-life, t½ (converted)) was 80.4 min; in series [3] (plasma, ip, IP dosing, plasma, read-out: apparent terminal half-life in plasma), 55 min. For the same compound, the clearance in series [2] (male, C57BL/6J, mouse, intraperitoneal, 2-compartment model fitted to IV, PO and IP plasma concentrations) is 202 mL/min/kg. In addition, the Tmax was at most 10 min in series [2] (male, C57BL/6J, mouse, intraperitoneal, PO and IP administration); 7.2 min in series [2] (setting [5]); 4.8 min in series [2] (setting [6]); 6 min in series [2] (setting [7]); about 20 min in series [3] (brain, ip, IP dosing, brain, read-out: Tmax in brain (converted)); 19.2 min in series [3] (brain, ip, IP, brain, read-out: Tmax). Besides, the bioavailability in series [2] (male, C57BL/6J, mouse, ip, 2 mg/kg, 2-compartment model, IP 2 mg/kg, read-out: FIP (bioavailability following IP administration)) was about 100%; in series [2] (male, C57BL/6J, mouse, po, 5 mg/kg, 2-compartment model, PO 5 mg/kg, read-out: Fpo (oral bioavailability)), about 6.6%. Besides, the AUC in series [2] (setting [5]) was determined as 0.397 µM·h; in series [2] (setting [6]) it was 0.207 µM·h; in series [2] (setting [7]), 0.064 µM·h; in series [3] (IP, brain, NCA), 0.634 µM·h. The Kp in series [3] (brain, ip, read-out: partition coefficient, Kp,brain) was determined as 1.6. For the same compound, the “duration of MOR antagonist action (lower bound)” value in the series on C57BL/6J mice [1] (0.1 mg/kg IP) is recorded as “at least 240 min”. For the same compound, the “duration of action (upper bound)” value in the series with C57BL/6J mice [1] (0.1 mg/kg IP) is reported as “less than 24 h”. For the same compound, the “prevention of oxycodone-induced antinociception” value in the series with C57BL/6J mice [1] (29 0.1 mg/kg IP, 30 min before oxycodone 5.6 mg/kg IP) is on record as “fully effective; also recorded: complete prevention”. Moreover, the “prevention of peak antinociceptive effects of oxycodone (time course)” value in the series on C57BL/6J mice [1] (29 0.1 mg/kg IP, pretreatment 15, 30, 120 and 240 min before oxycodone 5.6 mg/kg, measured 15 min after oxycodone) is on record as “significantly prevent”. Moreover, the “prevention of oxycodone-induced antinociception (dose-dependence)” value in the series on C57BL/6J mice [1] (29 0.01–0.1 mg/kg IP, 30 min before oxycodone 5.6 mg/kg IP) is recorded as “dose-dependently; also recorded: dose-dependent prevention”. Moreover, the “onset of antagonist action” value in the series with C57BL/6J mice [1] (after IP injection, 0.1 mg/kg) is on record as at most 15 min. In addition, the “blockade of locomotor effects of U50,488” value in the series with C57BL/6J mice [4] (29 0.1 mg/kg IP, 30 min before U50,488 10 mg/kg) was “ineffective; also recorded: did not cause any apparent blockade”. In addition, in the series with C57BL/6J mice [4] (29 1 mg/kg IP, 30 min before U50,488 10 mg/kg), the “blockade of locomotor depressant effects of U50,488” value was “did block the locomotor depressant effects; also recorded: able to prevent locomotor deficits”. Further, the “effect on locomotor activity alone” value in the series on C57BL/6J mice [4] (29 1 mg/kg alone, compared to a vehicle injection) was “did not cause significant effects on locomotor activity”.
